The text below walks through data of ChEMBL document CHEMBL1201862, “PubChem BioAssay data set” (2004).

Calls of active or inactive are those of the source.

Assay [1] is described as follows: Luminescence Cell-Based Dose Confirmation HTS to Identify Activators of 5'UTR Stem-Loop Driven Alpha-Synuclein mRNA Translation in H4 Neuroglioblastoma Cells. [Related pubchem assays: 1829 (Project Summary), 1814 (Primary HTS)]. Type of assay: functional.
Assay [2] deals with H4. The assay can be described thus: Luminescence Cell-Based Dose Response HTS to Identify Activators of 5'UTR Stem-Loop Driven Prion Protein mRNA Translation in H4 Neuroglioblastoma Cells. [Related pubchem assays: 1829 (Project Summary), 1814 (Primary HTS)]. Format: functional. The settings on record: Homo sapiens.
A short description of assay [3]: Luminescence Cell-Based Dose Response HTS to Identify Activators of Luciferase Translation or Activity in H4 […] Cells. [Related pubchem assays: 1829 (Project Summary), 1814 (Primary HTS)]. Format: functional.
The target in assay [4] is Nonstructural protein 1 (Influenza A virus, UniProt Q194T2). Type of assay: functional, Influenza A virus (A/California/07/2009(H1N1)).
Chain of Nonstructural protein 1 (Q194T2 whole entry): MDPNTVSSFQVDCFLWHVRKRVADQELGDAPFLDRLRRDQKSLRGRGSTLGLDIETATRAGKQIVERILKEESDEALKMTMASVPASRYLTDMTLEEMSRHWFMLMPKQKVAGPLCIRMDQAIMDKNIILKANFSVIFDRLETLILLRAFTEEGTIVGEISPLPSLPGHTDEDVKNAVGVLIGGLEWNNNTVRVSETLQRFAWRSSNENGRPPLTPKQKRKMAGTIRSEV
The target in assay [5] is T1, Short transient receptor potential channel 4 (Mus musculus, UniProt Q9QUQ5).
T1 sequence (Q9QUQ5 whole entry): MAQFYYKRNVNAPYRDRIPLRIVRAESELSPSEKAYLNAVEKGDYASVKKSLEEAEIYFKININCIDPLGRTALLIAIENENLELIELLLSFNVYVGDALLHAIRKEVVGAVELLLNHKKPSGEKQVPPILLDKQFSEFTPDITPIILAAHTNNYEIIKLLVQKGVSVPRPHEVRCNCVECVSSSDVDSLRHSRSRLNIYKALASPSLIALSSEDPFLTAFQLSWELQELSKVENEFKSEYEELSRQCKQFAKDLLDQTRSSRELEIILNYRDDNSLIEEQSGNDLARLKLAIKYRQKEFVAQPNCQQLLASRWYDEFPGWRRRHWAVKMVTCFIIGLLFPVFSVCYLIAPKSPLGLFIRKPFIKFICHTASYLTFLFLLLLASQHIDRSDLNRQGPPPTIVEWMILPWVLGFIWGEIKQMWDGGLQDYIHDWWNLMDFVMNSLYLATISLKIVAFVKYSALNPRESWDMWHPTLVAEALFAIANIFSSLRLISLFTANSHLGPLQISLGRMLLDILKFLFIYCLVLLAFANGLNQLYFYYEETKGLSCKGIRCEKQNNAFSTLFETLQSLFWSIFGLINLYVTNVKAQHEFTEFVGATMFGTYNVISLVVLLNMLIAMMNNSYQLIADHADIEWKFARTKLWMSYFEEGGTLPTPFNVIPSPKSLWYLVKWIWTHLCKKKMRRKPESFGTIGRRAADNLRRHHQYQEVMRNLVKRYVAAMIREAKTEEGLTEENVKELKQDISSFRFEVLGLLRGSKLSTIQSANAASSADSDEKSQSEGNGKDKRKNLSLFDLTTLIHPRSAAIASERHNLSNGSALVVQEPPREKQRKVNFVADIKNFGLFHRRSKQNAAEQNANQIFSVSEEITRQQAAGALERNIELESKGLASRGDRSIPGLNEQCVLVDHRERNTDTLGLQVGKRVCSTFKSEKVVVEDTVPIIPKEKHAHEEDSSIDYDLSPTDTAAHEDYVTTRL
Put plainly: mouse TRPC4 channel inhibitors, dose response, cell-based, HEK293 TRPC4/mu-opioid, Fluo-4 calcium (AID 434942).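 Also: potency of inhibitors blocking the TRPC4 calcium response.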 Type of assay: functional.

The subject of assay [6] is BJ. Put plainly: cytotoxicity toward BJ-TERT fibroblasts, dose response, cell-based, RAS-independent, luminescence (AID 1933). Format: functional. The settings on record: Homo sapiens.
Assay [7] has as its system BJ. The assay can be described thus: cytotoxicity toward BJ-TERT-LT-ST fibroblasts, dose response, cell-based, RAS-independent, luminescence (AID 1935).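 Also: BJ fibroblasts immortalized with TERT plus LT and ST oncogenes.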 The conditions noted are these: Homo sapiens. Type of assay: functional.
Assay [8] is described as follows: cytotoxicity toward DRD oncogenic fibroblasts, dose response, cell-based, non-viral oncogenic, luminescence (AID 1934). Format: functional. The conditions noted are these: Homo sapiens.
The subject of assay [9] is BJ. Put plainly: cells. The settings on record: Homo sapiens. Format: functional, cell-based.
The target in assay [10] is T2, Protein skinhead-1 (Caenorhabditis elegans, UniProt P34707).
T2 sequence (P34707 whole entry): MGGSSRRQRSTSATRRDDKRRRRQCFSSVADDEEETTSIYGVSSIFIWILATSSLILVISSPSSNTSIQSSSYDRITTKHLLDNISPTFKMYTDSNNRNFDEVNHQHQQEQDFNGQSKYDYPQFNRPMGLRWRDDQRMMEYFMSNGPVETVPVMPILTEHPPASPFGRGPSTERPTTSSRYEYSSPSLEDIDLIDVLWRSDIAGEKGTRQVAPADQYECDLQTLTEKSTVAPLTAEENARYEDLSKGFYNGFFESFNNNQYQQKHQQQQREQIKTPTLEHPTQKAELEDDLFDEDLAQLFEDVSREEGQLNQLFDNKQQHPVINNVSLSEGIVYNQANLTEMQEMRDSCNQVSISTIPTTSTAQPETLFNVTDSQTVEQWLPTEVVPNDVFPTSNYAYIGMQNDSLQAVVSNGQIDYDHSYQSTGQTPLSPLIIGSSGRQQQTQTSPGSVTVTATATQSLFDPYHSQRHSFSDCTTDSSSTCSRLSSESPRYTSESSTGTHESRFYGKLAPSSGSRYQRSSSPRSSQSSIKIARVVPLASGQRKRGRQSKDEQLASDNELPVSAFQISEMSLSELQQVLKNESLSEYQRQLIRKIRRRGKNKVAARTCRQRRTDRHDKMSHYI
Format: functional.

The target of assay [11] is T3, Long-chain-fatty-acid--AMP ligase FadD28 (Mycobacterium tuberculosis, UniProt P9WQ59).
T3 sequence (P9WQ59 whole entry): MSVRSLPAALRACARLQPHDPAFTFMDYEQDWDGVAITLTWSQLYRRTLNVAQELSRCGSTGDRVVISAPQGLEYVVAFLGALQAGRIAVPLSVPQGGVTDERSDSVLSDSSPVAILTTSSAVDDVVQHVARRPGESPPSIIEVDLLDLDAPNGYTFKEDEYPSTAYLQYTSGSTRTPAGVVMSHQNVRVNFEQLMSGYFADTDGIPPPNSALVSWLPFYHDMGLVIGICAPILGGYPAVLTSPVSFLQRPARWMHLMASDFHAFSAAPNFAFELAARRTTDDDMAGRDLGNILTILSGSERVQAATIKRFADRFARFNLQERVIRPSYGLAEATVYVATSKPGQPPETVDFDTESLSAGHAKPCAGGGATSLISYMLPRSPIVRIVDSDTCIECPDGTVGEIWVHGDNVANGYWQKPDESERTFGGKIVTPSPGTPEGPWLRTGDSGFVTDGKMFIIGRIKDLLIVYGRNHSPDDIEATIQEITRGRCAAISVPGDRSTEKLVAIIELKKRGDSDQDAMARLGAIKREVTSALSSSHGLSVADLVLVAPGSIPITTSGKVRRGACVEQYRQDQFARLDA
Put plainly: Fluorescence polarization aasay to screen for inhibitors that compete for the binding of FadD28 to a bisubstrate Measured in Biochemical System Using Plate Reader - 2147-01_Inhibitor_Dose_CherryPick_Activity. Format: functional, Mycobacterium tuberculosis H37Rv. For orientation: Fluorescence polarisation rises when a labelled molecule tumbles more slowly, as on binding a larger partner.

Assay [12] addresses T4, Polyadenylate-binding protein 1 (Homo sapiens, UniProt P11940). Put plainly: PABP1 MLLE–PAM2 binding inhibitor potency, dose response, biochemical, fluorescence polarization, FITC-PAM2 peptide (AID 602259). Type of assay: functional. The settings on record: read-out: IC50_Mean.
For assay [13], the target named is Induced myeloid leukemia cell differentiation protein Mcl-1 (Homo sapiens, UniProt Q07820). Format: functional.
Chain of Induced myeloid leukemia cell differentiation protein Mcl-1 (Q07820 whole entry): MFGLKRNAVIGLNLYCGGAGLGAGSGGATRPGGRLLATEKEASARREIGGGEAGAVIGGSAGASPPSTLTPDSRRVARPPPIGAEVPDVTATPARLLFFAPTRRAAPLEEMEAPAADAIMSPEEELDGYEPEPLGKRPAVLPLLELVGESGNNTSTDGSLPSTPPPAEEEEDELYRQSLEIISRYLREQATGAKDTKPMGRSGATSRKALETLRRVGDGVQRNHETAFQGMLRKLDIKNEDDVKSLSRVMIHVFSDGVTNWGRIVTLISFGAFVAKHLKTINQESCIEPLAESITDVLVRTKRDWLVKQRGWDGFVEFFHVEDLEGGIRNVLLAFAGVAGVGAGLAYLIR
Assay [14] has as its target T4, Polyadenylate-binding protein 1. The assay can be described thus: PABP1 MLLE–PAM2 interaction inhibitors, dose response, miRNA deadenylation inhibitor project, biochemical, fluorescence polarization, Cy5-PAM2 peptide, secondary (AID 602260). Type of assay: functional. The conditions noted are these: read-out: IC50_Mean.
Assay [15] can be described thus: inhibitors of HIV Env-driven cell fusion, dose response, cherry-pick (AID 652057). Type of assay: functional, cell-based.
Assay [16] can be described thus: inhibitors of clade B AD8 Env fusion, dose response, cell-based, cherry-pick (AID 652062).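 Also: luciferase signal from cell-cell fusion driven by HIV-1 clade B AD8 Env; potency is for inhibitors of fusion seen as a drop in luminescence.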 Format: functional.
In assay [17] the target is Large T antigen (Simian virus 40, UniProt P03070). Format: functional, Betapolyomavirus macacae.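 Also: Confirmatory-stage PubChem screen for compounds that inhibit SV40 T antigen.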
Chain of Large T antigen (P03070 whole entry): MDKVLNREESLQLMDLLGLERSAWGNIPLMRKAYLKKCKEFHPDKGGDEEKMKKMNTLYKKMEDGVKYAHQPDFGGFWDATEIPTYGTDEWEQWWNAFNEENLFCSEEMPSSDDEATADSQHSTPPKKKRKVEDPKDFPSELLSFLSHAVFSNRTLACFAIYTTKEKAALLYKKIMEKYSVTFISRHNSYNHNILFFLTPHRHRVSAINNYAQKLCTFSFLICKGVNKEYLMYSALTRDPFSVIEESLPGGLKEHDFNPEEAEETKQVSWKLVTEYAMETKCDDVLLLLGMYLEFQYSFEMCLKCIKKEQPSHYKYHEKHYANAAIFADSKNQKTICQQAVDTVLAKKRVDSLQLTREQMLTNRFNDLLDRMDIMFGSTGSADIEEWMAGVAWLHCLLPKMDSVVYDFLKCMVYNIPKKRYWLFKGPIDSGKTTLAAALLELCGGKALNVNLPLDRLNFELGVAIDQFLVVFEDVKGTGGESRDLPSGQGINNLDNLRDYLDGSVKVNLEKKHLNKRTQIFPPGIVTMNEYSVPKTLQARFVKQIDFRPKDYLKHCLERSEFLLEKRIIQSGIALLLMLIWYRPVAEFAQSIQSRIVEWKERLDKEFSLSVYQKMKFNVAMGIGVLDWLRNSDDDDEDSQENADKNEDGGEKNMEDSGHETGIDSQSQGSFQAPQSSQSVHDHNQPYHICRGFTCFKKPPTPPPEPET
The nature of assay [18]: NIH-3T3 fibroblast cytotoxicity, dose response, cytotoxicity control, cell-based, fluorescence, Alamar Blue, secondary assay (AID 2327).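 Also: NIH-3T3 mouse fibroblasts cultured with fluconazole at 8 µg/mL.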 Format: functional. (In general: The colour change of resazurin is a common sign of viable cells or microbes.)
Assay [19] concerns the target FAD-linked sulfhydryl oxidase ALR (Homo sapiens, UniProt P55789). Put plainly: inhibitors of human ALR sulfhydryl oxidase, dose response, biochemical, H2O2 detection, luminescence, cherry-pick (AID 493248).
For assay [20], the target named is DNA dC->dU-editing enzyme APOBEC-3G (Homo sapiens, UniProt Q9HC16). Put plainly: Dose Response confirmation of small molecule APOBEC3G DNA Deaminase Inhibitors via a fluorescence-based single-stranded DNA deaminase assay. [Related pubchem assays (depositor defined):AID493012, AID493028]. Type of assay: functional.
Chain of DNA dC->dU-editing enzyme APOBEC-3G (Q9HC16 whole entry): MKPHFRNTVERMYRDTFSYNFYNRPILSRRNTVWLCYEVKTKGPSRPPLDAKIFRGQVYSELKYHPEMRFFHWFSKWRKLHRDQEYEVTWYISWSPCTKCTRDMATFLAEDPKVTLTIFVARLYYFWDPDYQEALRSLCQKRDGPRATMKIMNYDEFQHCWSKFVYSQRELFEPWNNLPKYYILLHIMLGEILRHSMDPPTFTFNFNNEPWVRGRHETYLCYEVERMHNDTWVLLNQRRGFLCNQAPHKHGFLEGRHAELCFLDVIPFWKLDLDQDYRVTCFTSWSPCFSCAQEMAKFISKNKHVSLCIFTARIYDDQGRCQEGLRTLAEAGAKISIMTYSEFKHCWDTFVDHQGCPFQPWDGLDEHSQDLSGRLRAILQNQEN
The nature of assay [21]: C. albicans growth with fluconazole, confirmation, fluorescence, retest (AID 2467). Type of assay: functional, cell-based.
The test system of assay [22] is INS1. Put plainly: beta cell apoptosis inhibitors, cytokine rescue, dose response, luminescence, retest (AID 449756).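 Also: cell death triggered by IL-1 beta plus TNF-alpha plus IFN-gamma mixture; protective hits raise ATP signal compared with cytokine alone wells.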 Type of assay: functional, cell-based. The settings on record: Rattus norvegicus.
Assay [23] concerns the target Fatty acid synthase (Homo sapiens, UniProt P49327). The assay can be described thus: FAS thioesterase domain inhibitors, dose response, biochemical, kinetic fluorescence intensity (AID 624326).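 Also: rate of fluorescence rise from hydrolysis of a fluorogenic O-methyl fluorescein ester substrate.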 Type of assay: functional.

T4 sequence (P11940 whole entry): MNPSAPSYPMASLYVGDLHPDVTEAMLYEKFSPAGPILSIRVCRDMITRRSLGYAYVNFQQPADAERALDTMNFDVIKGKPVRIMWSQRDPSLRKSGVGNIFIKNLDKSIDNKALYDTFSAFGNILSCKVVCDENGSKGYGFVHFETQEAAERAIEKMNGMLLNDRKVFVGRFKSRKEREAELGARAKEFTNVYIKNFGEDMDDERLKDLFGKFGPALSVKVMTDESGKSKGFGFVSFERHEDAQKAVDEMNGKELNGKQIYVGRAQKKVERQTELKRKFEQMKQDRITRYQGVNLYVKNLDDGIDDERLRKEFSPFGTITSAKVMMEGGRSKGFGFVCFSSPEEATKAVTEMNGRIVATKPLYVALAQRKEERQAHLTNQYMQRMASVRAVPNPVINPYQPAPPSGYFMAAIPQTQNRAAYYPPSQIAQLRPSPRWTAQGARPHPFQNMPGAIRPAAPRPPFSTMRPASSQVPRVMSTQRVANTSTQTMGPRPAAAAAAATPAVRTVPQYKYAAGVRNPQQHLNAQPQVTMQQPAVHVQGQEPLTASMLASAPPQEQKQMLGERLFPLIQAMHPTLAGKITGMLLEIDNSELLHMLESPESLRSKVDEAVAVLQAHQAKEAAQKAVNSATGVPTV
Chain of Fatty acid synthase (P49327 whole entry, the tested form may be a part): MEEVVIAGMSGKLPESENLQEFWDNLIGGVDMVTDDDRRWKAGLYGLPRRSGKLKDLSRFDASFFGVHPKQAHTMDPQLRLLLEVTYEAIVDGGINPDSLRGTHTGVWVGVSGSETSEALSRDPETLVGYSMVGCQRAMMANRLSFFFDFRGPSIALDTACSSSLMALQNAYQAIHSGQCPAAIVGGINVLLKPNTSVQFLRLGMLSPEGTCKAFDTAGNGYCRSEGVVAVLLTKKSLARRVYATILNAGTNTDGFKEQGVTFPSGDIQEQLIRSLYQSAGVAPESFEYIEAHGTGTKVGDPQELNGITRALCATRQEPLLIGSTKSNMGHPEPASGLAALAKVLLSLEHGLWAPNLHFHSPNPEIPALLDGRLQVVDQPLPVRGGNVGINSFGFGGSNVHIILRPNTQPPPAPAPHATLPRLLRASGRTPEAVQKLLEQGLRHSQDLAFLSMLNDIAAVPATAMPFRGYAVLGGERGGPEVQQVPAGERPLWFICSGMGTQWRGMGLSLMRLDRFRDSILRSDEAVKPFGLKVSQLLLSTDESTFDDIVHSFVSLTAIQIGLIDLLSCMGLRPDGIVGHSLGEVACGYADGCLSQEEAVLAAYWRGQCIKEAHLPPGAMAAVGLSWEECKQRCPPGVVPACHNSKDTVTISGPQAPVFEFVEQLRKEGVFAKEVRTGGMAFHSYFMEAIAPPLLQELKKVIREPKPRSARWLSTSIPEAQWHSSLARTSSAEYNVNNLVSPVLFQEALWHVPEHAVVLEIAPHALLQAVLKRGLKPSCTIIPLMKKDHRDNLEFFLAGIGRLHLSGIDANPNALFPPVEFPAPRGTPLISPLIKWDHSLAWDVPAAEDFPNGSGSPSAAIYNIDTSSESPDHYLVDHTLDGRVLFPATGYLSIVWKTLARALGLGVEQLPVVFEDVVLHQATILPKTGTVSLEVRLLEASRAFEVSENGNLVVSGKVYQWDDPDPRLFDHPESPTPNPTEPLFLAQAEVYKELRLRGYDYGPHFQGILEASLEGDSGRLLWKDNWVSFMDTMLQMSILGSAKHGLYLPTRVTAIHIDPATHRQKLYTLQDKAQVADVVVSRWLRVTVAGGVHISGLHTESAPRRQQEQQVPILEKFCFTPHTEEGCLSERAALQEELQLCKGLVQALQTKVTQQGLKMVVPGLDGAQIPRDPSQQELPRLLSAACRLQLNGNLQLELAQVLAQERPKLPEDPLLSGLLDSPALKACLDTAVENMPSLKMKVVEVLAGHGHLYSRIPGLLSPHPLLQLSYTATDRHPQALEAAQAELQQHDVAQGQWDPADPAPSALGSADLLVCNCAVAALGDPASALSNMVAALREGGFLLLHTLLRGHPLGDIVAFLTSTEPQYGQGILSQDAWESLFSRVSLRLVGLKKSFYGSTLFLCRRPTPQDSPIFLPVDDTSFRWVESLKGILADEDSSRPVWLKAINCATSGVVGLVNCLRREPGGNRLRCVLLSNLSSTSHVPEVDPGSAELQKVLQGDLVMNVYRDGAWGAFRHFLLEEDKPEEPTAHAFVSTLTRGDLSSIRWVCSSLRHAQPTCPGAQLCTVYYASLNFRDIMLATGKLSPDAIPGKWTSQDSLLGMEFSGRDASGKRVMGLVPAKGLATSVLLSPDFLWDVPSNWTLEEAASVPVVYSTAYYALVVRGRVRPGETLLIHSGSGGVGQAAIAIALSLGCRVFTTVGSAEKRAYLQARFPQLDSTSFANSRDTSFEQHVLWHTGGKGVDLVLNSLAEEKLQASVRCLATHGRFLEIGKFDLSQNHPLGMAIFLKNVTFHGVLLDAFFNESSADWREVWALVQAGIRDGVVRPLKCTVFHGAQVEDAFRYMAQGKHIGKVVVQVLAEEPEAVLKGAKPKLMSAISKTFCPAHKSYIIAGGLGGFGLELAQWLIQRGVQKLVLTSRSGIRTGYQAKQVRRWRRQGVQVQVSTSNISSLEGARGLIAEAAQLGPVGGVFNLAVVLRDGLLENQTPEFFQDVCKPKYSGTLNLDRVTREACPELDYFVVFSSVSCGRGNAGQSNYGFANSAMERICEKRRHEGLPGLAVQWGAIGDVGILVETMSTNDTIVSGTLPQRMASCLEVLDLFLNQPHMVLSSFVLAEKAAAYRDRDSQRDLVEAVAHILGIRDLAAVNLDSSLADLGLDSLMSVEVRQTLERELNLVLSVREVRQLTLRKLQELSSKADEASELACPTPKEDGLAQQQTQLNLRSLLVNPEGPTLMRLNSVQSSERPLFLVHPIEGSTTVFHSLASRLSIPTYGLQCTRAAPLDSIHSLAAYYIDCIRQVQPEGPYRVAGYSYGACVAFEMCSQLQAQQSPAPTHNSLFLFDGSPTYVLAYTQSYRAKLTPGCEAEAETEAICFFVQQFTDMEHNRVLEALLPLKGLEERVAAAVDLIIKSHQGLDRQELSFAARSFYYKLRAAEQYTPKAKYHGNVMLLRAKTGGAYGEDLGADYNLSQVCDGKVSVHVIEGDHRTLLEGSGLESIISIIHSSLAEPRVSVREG
Chain of FAD-linked sulfhydryl oxidase ALR (P55789 whole entry): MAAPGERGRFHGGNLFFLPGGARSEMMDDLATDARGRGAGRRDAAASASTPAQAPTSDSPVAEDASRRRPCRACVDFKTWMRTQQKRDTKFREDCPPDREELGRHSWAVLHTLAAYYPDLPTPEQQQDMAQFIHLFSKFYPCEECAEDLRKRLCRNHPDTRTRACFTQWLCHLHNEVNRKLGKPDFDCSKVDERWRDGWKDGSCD

On to `O=C(Nc1ccc2c(c1)OCO2)c1ccc(Br)o1`, for which the results for the EC50 in assay [1], in [2] and in [3] were 0.165 µM (active), > 120 µM (not active) and > 120 µM (not active), respectively.

Consider `O=C(Nc1cccc2ccccc12)c1onc2c1CCCC2`, for which the EC50 (in general, the concentration needed to bring the measured effect to its halfway point) in [1] was 0.192 µM (active); in [2], > 120 µM (not active); in [3] it was 78.7 µM (active). The corresponding values for `CC(Sc1nnc(-c2cccnc2)n1-c1ccccc1)C(=O)NCc1ccc2c(c1)OCO2` (stereo not drawn) are 9.46 µM (active), 38 µM (active) and 16.5 µM (active). Regarding `CC1=NN(c2ccccc2)C(=O)/C1=C/c1ccc[nH]1`, the IC50 in assay [4] was 33 µM (active). Consider `CC(NC(=O)c1ccco1)C(c1cccs1)N1CCN(c2ccccc2)CC1` (stereo not drawn), for which, in assay [5], the EC50 was 0.376 µM (active). For the compound `Cc1ccc(C(C(=O)NC(C)(C)C)N(C(=O)CCC(=O)Nc2ccccn2)c2ccccc2F)cc1` (stereo not drawn), the EC50 in assay [5] is 2.99 µM (active). Turning to `O=C(Cn1c2ccccc2c(=O)c2cc([N+](=O)[O-])ccc21)Nc1ccccc1Cl`, the EC50 in assay [6] is > 150 µM (not active); in assay [7], > 75 µM (inconclusive); in [8] it was > 150 µM (inconclusive); in assay [9] it was > 150 µM (not active).

For `CC(C)CN=C(S)NC1CC2CCCC(C1)N2C1CCCCC1` (stereo not drawn), the EC50 in [1] is > 120 µM (not active); in assay [2], 44.3 µM (active); in assay [3] it was > 120 µM (not active). Consider `Cc1cccc(S(=O)(=O)N/N=c2\sc3ccccc3n2C)c1`, for which the EC50 in assay [1] is 5.13 µM (active); in assay [2], 23.2 µM (active); in assay [3] it was 10.1 µM (active). With `O=C(CSc1nc(O)c(C2CCCCC2)c(O)n1)NCC1CCCO1` (stereo not drawn), the IC50 in assay [10] was > 100 µM (inactive). For the compound `CCc1nc2ccccc2n1CC(=O)N(C(C)CC)C1CCS(=O)(=O)C1` (stereo not drawn), the IC50 in [10] was > 100 µM (inactive). Consider `CCc1nc2ccc(C(=O)NCCCn3ccnc3)cn2c1N(C)Cc1cc2ccccc2s1`, for which the AC50 – broadly, the concentration giving half of the maximal activity seen – in assay [11] was 74.3 µM (active). Regarding `COc1ccc(C(=O)NCCc2c[nH]c3ccccc23)cc1S(=O)(=O)N1CCCCC1C` (stereo not drawn), the AC50 in [11] is 2.97 µM (active). Take `CNc1sc(C(=O)c2ccccc2F)c(N)c1-c1nc2ccccc2s1`: the IC50 is 49.5 µM (inactive) in assay [12], 4.92 µM (active) in [13] and > 66 µM (inactive) in assay [14]. `COC(=O)c1cn(NC(=O)C2COc3ccccc3O2)c(=O)c2ccccc12` (stereo not drawn): in assay [10], the IC50 was > 100 µM (inactive). Same read-out and setting: next, `CSC(=NCCCN1CCOCC1)NS(=O)(=O)c1cccs1`: > 100 µM (inactive). `COC(=O)CSc1nnc(SCc2ccc(OC)cc2)s1`: in [10], the IC50 was > 100 µM (inactive).

Regarding `CCC(c1nnnn1CCOC)N1CCN(Cc2ccccc2)CC1` (stereo not drawn), the IC50 in [10] is > 100 µM (inactive). For `Cn1c(-c2ccc(F)cc2)cnc1NCc1ccc(F)cc1F`, the EC50 in [5] was 2.66 µM (active). For `CC(C)NC(=O)Nc1ccc2c(c1)C(=O)N([C@H](C)CO)C[C@@H](C)[C@@H](CN(C)C(=O)CCC(F)(F)F)OCCCC[C@@H](C)O2`, the values for the AC50 in assay [15] and in assay [16] were < 0.26 µM (active) and 1.02 µM (active), respectively. In the case of `Oc1ccc(/C=N/n2c(S)nnc2COc2ccccc2)cc1O`, the IC50 was 6.29 µM (active) in [17] and 2.1 µM (active) in [20]. Besides, the EC50 in assay [18] was 24.6 µM (active); in [21] it was > 38 µM (not active). Further, the AC50 in assay [19] was 0.005 µM (active). Consider `CCn1c(=O)c([N+](=O)[O-])c(N2CCN(Cc3ccc4c(c3)OCO4)CC2)c2ccccc21`, for which the AC50 in assay [22] was 26.1 µM (active). In addition, the IC50 in [23] was 1.8 µM (active).
